Assay results from publication PMC12328707, “Potassium binding by carbonyl clusters, halophilic adaptation and catalysis of Haloferax mediterranei D-2-hydroxyacid dehydrogenase” (Communications Biology, 2025).

Biological target: T1, D2HDH (Haloferax mediterranei, UniProt Q2VEQ7)
T1 construct: gene ddh; homodimer (~66 kDa; 79 kDa by gel filtration); residues 1-308; no tag mentioned
Assay: X-ray crystal structure, […] Å
Assay type: binding
Details: formed by turnover in the crystallisation drop; NADP+ bound; modelled in subunit B as 2:1 mixture of 2-ketohexanoic acid and hydroxy acid

T1 sequence (Q2VEQ7 whole entry, the tested form may be a part): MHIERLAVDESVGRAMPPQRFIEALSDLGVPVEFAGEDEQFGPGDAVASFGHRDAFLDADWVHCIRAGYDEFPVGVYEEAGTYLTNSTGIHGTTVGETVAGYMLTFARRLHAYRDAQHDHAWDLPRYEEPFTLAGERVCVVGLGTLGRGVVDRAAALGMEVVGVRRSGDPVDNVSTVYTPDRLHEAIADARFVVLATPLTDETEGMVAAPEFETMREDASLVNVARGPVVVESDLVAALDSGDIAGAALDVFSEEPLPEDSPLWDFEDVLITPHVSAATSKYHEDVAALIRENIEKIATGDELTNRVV

CCCC[C@@H](O)C(=O)O [D-2-hydroxyhexanoic acid]
X-ray crystal structure, 1.57 Å: D-2-hydroxyhexanoic acid (beige carbons) bound to the active site of the D2HDH/NADP^+ complex
